Article PMC12259270, “Sensory neuron–expressed FGF13 controls nociceptive signaling in diabetic neuropathy models” (The Journal of Clinical Investigation, 2025)
Several values for one entry are separate records, joined by “and”; a condition that tells them apart may be missing. Equal values may be shown once. Residues, ends and D or L forms follow the SMILES beside them. *: point of attachment. Cbz = O=C(OCc1ccccc1)*; NHPh = c1ccc(N*)cc1; OtBu = CC(C)(C)O*

Target: T1, FGF13/Nav1.7 CTD complex (Homo sapiens, UniProt Q92913)
T1 construct: Full-length FGF13-1b (aa 1-192) was subcloned into appropriate plasmids; Nav1.7 residues 1780-1977; expressed in transfected cells; host or cells: HEK293 (inferred; the LCA paragraph only says 'cells')
T1 sequence (Q92913 1-192 isoform Q92913-2): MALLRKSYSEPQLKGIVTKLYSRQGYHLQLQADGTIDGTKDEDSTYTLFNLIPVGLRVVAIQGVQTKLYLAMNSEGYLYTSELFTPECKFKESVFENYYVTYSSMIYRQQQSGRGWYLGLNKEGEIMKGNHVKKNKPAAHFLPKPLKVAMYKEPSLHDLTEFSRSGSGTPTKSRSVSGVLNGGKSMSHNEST
Experiment: Split-luciferase complementation assay (LCA), CLuc-FGF13/CD4-Nav1.7-CTD-NLuc
Format: cell-based
Set-up: key to LCA dose response, Mean (Figure 1B): % of mean signal of per-plate 0.5% DMSO control wells
Details: for Percentage luminescence, Mean: Fig 1B dose response; for Luminescence signal over time, mean: FGF13, PW164
Excerpt: The respective gene ID numbers used in this study are as follows: NM_033642 (human, FGF13-1b) and NM_002977 (human SCN9A). Full-length FGF13-1b (aa 1-192) was subcloned into appropriate plasmids for use in this investigation, unless otherwise noted. For consistency with AlphaFold modeling presented, numbering of point mutations to FGF13-1b are based on the longest FGF13 isoform (FGF13-1a, NM_004114.2). CLuc-FGF13, […]
and constructs expressing the CLuc or the NLuc fragments of Firefly ( Photinus pyralis) luciferase (24) respectively were engineered, mutated (CLuc-FGF13R110A) and sequenced at the Molecular Genomics Core (University of Texas Medical Branch). The CD4 -Nav1.7-CTD-NLuc cassette was synthesized from GeneArt (Nav1.7 residues 1780-1977) (ThermoFisher) and subcloned at 5'-HindIII and 3’-BsiWi restriction sites in pcDNA3.1 (Invitrogen). Additionally, FGF13 was amplified with polymerase chain reaction (PCR) by using gene-specific primers, and subcloned in pcDNA3.1 at 5’ -BsiWi and 3’-Not I restriction sites. […]
Cell Culture and transfections
HEK293 cells were purchased from ATCC (catalog # CRL-1573). Cells were cultured and incubated at 37 °C with 5% CO2 in medium with equal volumes of Dulbecco modified essential medium (DMEM) and F12 […]
Split-luciferase Complementation Assay (LCA)
Twenty-four hours post transfection, cells were trypsinized using TrypLE (Gibco; cat # 12604013), centrifuged at 1750 rpm for 5 min, triturated in medium, and seeded into white clear-bottom 96-well CELLSTAR µClear® plates (Greiner Bio -One; cat # 655073 ) at ~0.8 x 10^5 cells per well in 200 µl of medium. The cells were incubated for another 24 hours, and then the growth medium was replaced with 100 µl serum -free, phenol red -free DMEM/F-12 medium (Invitrogen). All compounds from the PW - and the ZL-series, including PW164 and ZL192, were dissolved in DMSO, added to a final concentration of 1 –500 μM (0.5 % DMSO) in the serum -free medium and then cells were incubated for two hours. The bioluminescence reaction was initiated by injection of 100 μl of D -luciferin substrate (1.5 mg/ml dissolved in PBS) using a Synergy H4 multimode microplate reader (BioTek). Luminescence readings were initiated after 3 s of mild plate shaking and performed at 2 min intervals for 20-30 min with integration times of 0.5 s, and the c ells were maintained throughout the measurements at 37 °C. Raw signal intensity was computed by averaging peak luminescence plus two adjacent time points.
Normalized signal intensity was expressed as the percentage of mean signal intensity relative to per plate control wells treated with 0.5% DMSO. […]
The FGF13 was immobilized to the final 1 0050 RU, and Nav1.7 to the 10 or 1000 RU, and no protein was coupled to the control channel of the chip. For each compound, stock solution (50 mM) was serially diluted from 300 to 1 µM; the Nav1.7 -CTD peptide (1876 -1899, 23 amino acids, MW ~2.8 kDa) was se rially diluted from 150 to 1 nM in PBS-P+ (PBS supplemented 0.005% with tween 20). Samples were injected over the chip for 60 s followed by dissociation for 120 s at the flow rate 40 µl/min; finally, the chip was regenerated using the solution of 1.5 M NaCl, 3% DMSO for 180 s. The interaction of compound or un-conjugated Nav1.7 -CTD peptide with FGF13, as […]

COC(=O)[C@@H](NC(=O)[C@H](CCC(=O)OC(C)(C)C)NC(=O)[C@H](CC(C)C)NC(=O)[C@@H]1CCCN1C(=O)OCc1ccccc1)C(C)C [PW164] (Cbz-PLE(OtBu)V-OMe)
LCA screening of the PW-series compounds against the FGF13/Nav1.7 complex (Fig. S2C) (50 μM, individual replicates, vehicle about 100): 52.9829 and 54.4974 and 52.792 and 43.8067 and 53.8102 and 54.3574 and 65.3028 and 53.9247 | Percentage luminescence, Mean (Log (conc(M)) -3.6): 36.225% | Percentage luminescence, Mean (Log (conc(M)) -3.82): 36.175% | Percentage luminescence, Mean (Log (conc(M)) -4): 36.8% | Percentage luminescence, Mean (Log (conc(M)) -4.12): 37.575% | Percentage luminescence, Mean (Log (conc(M)) -4.22): 41.95% | Percentage luminescence, Mean (Log (conc(M)) -4.3): 49.1% | Percentage luminescence, Mean (Log (conc(M)) -4.4): 55.95% | Percentage luminescence, Mean (Log (conc(M)) -4.6): 72.975% | Percentage luminescence, Mean (Log (conc(M)) -4.7): 78.7625% | Percentage luminescence, Mean (Log (conc(M)) -4.82): 95.2% | Percentage luminescence, Mean (Log (conc(M)) -5): 102.25% | Percentage luminescence, Mean (Log (conc(M)) -5.5): 98.45% | Percentage luminescence, Mean (Log (conc(M)) -6): 97.8125% | Luminescence signal over time, mean (Fig 1B, Time 0): 229.9 | Luminescence signal over time, mean (Fig 1B, Time 5): 547.2 | Luminescence signal over time, mean (Fig 1B, Time 10): 954.8 | Luminescence signal over time, mean (Fig 1B, Time 15): 1153.7 | Percentage luminescence, single replicates (Fig 1B, FGF13, PW164 (20 μM)): 42.7306% and 39.5799% and 34.1155% and 47.555% and 46.8165% and 80.4398% and 35.0509% and 53.5117% and 52.6748% and 30.1772% and 36.3308% | LCA analysis of FGF13/Nav1.7 (Figure 8D, WT PW164, replicate values beside WT DMSO): 48.4338 and 51.009 and 48.3348 and 45.8586 and 44.3729 and 45.9577 and 44.0758 and 49.7469 and 51.824 and 46.8389 and 47.9813 | IC50 (LCA dose response, Fig 1B, read-out: IC50, inhibition of FGF13/Nav1.7 complex assembly): 29 ± 5 µM

CC(=O)N[C@@H](Cc1ccccc1)C(=O)N[C@@H](CC(C)C)C(=O)N1CCC[C@H]1C(=O)N[C@@H](CCCCN)C(=O)Nc1ccccc1 [ZL192] (Ac-FLPK-NHPh)
LCA signal, FGF13 (Figure 1B), individual replicates (FGF13, ZL192 vs Vehicle): 148.142 and 186.697 and 151.094 and 172.833 and 154.782 and 172.987 and 159.506 and 193.88 and 161.695 and 170.692 and 150.24 and 163.294 | EC50 (LCA dose-response, Fig 4B, read-out: EC50, increase of FGF13/Nav1.7 complex assembly): 28 ± 5 µM | LCA dose response, Mean (Figure 1B) (Log (conc(M)) -3.6): 132.85 | LCA dose response, Mean (Figure 1B) (Log (conc(M)) -3.82): 139.626 | LCA dose response, Mean (Figure 1B) (Log (conc(M)) -4): 140.168 | LCA dose response, Mean (Figure 1B) (Log (conc(M)) -4.12): 146.164 | LCA dose response, Mean (Figure 1B) (Log (conc(M)) -4.22): 133.106 | LCA dose response, Mean (Figure 1B) (Log (conc(M)) -4.3): 141.107 | LCA dose response, Mean (Figure 1B) (Log (conc(M)) -4.4): 130.374 | LCA dose response, Mean (Figure 1B) (Log (conc(M)) -4.6): 116.119 | LCA dose response, Mean (Figure 1B) (Log (conc(M)) -4.7): 109.491 | LCA dose response, Mean (Figure 1B) (Log (conc(M)) -4.82): 110.318 | LCA dose response, Mean (Figure 1B) (Log (conc(M)) -5): 102.555 | LCA dose response, Mean (Figure 1B) (Log (conc(M)) -5.5): 100.737 | LCA dose response, Mean (Figure 1B) (Log (conc(M)) -6): 101.723
